These results are taken from ChEMBL document CHEMBL4334523, “Enzymatic Preparation of 2'-5',3'-5'-Cyclic Dinucleotides, Their Binding Properties to Stimulator of Interferon Genes Adaptor Protein, and Structure/Activity Correlations” (J Med Chem, 2019).

Series [1] concerns the target T1, Stimulator of interferon genes protein (Homo sapiens, UniProt Q86WV6). The series is described as follows: Activation of recombinant human wild-type STING expressed in 293T cells incubated for 7 hrs in absence of digitonin A by bright Glo-luciferase reporter gene assay. In kind it is cell-based.
A short description of series [2]: Cytotoxicity against human PBMC-derived CD3-positive T cells assessed as effect on cell viability at 12.5 uM incubated for 16 hrs by Zombie-NIR staining-based flow cytometry. (In general: Flow cytometry measures light scatter and fluorescence of single cells or particles in a stream.)
In series [3] the target is Stimulator of interferon genes protein (Homo sapiens, UniProt Q86WV6, G230A/R293Q/R71H). The series is described as follows: Activation of recombinant human STING haplotype R71H/G230A/R293Q mutant expressed in 293T cells measured after 30 mins in presence of digitonin A by bright Glo-luciferase reporter gene assay. Format: cell-based. For orientation: In a reporter assay the amount or activity of a reporter protein is the signal.

The target in series [4] is T1, Stimulator of interferon genes protein. Briefly: Activation of recombinant human wild-type STING expressed in 293T cells measured after 30 mins in presence of digitonin A by bright Glo-luciferase reporter gene assay. In kind it is cell-based.
The target in series [5] is Stimulator of interferon genes protein (Homo sapiens, UniProt Q86WV6, G230A/R293Q). Briefly: Activation of recombinant human STING haplotype G230A/R293Q mutant expressed in 293T cells measured after 30 mins in presence of digitonin A by bright Glo-luciferase reporter gene assay. Format: cell-based.
Series [6] deals with T1, Stimulator of interferon genes protein.
Description: Binding affinity to recombinant human wild-type STING assessed as change in melting temperature at 150 uM by SYPRO orange dye based differential scanning fluorimetric method
A short description of another series: cells. As to conditions: Homo sapiens, HEK-293T, 0.5 h.
Another series deals with Monocyte. Briefly: Cytotoxicity against human PBMC-derived monocytes assessed as CD3-negative CD14 positive monocyte viability at 12.5 uM incubated for 16 hrs by Zombie-NIR staining-based flow cytometry relative to control. Format: functional.
For series [7], the target named is Stimulator of interferon genes protein (Homo sapiens, UniProt Q86WV6, R293Q). Briefly: Activation of recombinant human STING haplotype R293Q mutant expressed in 293T cells measured after 30 mins in presence of digitonin A by bright Glo-luciferase reporter gene assay. In kind it is cell-based.
The next series is filed under the species Homo sapiens. Format: cell-based.

The structures appear in SMILES notation.

Chain of Stimulator of interferon genes protein (Homo sapiens, UniProt Q86WV6, R293Q) (Q86WV6 whole entry R293Q): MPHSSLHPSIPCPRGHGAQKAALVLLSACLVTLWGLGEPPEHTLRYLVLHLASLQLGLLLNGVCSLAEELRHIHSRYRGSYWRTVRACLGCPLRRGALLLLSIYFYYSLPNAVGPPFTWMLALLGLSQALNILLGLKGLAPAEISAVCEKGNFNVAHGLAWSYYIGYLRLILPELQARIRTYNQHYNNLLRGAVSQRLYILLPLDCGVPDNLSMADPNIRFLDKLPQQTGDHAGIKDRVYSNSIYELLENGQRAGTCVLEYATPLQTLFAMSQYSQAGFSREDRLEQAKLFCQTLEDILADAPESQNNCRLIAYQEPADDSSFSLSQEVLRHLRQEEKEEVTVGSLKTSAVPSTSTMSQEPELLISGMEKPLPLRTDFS
T1 sequence (Q86WV6 whole entry): as the sequence (Q86WV6 whole entry R293Q) above, with Q293R counted along it
Chain of Stimulator of interferon genes protein (Homo sapiens, UniProt Q86WV6, G230A/R293Q/R71H) (Q86WV6 whole entry R71H/G230A/R293Q): as the sequence (Q86WV6 whole entry R293Q) above, with R71H, G230A counted along it
Chain of Stimulator of interferon genes protein (Homo sapiens, UniProt Q86WV6, G230A/R293Q) (Q86WV6 whole entry G230A/R293Q): as the sequence (Q86WV6 whole entry R293Q) above, with G230A counted along it
Description for cells: Activation of recombinant human STING haplotype R232H mutant expressed in 293T cells measured after 30 mins in presence of digitonin A by bright Glo-luciferase reporter gene assay

A word on the EC50: it is the concentration at which the effect is half-maximal. Usually ΔTm stands for the shift of the melting midpoint relative to a reference. Take `Nc1nc2c(ncn2[C@@H]2O[C@@H]3COP(=O)(O)O[C@H]4C[C@H](n5cnc6c(N)nc(Cl)nc65)O[C@@H]4COP(=O)(O)O[C@@H]2[C@@H]3O)c(=O)[nH]1`: the concentration for a half-maximal effect (EC50) in [1] was 58200 nM; in series [3] it was 80 nM; in [4], 70 nM; in series [5], 90 nM; in “cells” it was 4700 nM; in series [7], 960 nM. Also, the Activity entry is listed as “Non-Toxic” in [2] and 0.1% in the series on Monocyte. Also, the ΔTm in [6] amounted to 9.5 °C. In the series filed under Homo sapiens, this compound returned a max activation of less than 30%.

With `CSc1nc(N)nc2c1ncn2[C@@H]1O[C@@H]2COP(=O)(O)O[C@@H]3[C@H](O)[C@@H](COP(=O)(O)O[C@H]2[C@H]1O)O[C@H]3n1cnc2c(=O)[nH]c(N)nc21`, the EC50 was more than 300000 nM in series [1]; 480 nM in series [3]; 300 nM in series [4]; 240 nM in [5]; 27600 nM in the series “cells”; 8500 nM in [7]. The Activity result in series [2] is “Non-Toxic”; with Monocyte it was 4.8%. Also, in series [6], the ΔTm came out at 3.5 °C. Moreover, the max activation in the series listed under Homo sapiens was less than 30%.

Consider `CNc1ncnc2c1ncn2[C@@H]1O[C@@H]2COP(=O)(O)O[C@@H]3[C@H](O)[C@@H](COP(=O)(O)O[C@H]2[C@H]1O)O[C@H]3n1cnc2c(=O)[nH]c(N)nc21`, for which the EC50 is 63700 nM in series [1]; 60 nM in [3]; 20 nM in series [4]; 60 nM in series [5]; 700 nM in “cells”; 1200 nM in [7]. Also, the Activity result was “Non-Toxic” in [2] and 0.8% in the series on Monocyte. For the same compound, in series [6], the ΔTm came to 9 °C. For the same compound, the max activation in the series filed under Homo sapiens is less than 30%.

For `CSc1ncnc2c1ncn2[C@@H]1O[C@@H]2COP(=O)(O)O[C@@H]3[C@H](O)[C@@H](COP(=O)(O)O[C@H]2[C@H]1O)O[C@H]3n1cnc2c(=O)[nH]c(N)nc21`, the EC50 in series [1] was determined as 13300 nM; in [3], 60 nM; in series [4], 10 nM; in series [5] it was 60 nM; in “cells” it was 2300 nM; in series [7], 1230 nM. The Activity result in series [2] was “Non-Toxic”; in the series on Monocyte, 0.4%. Besides, the ΔTm in series [6] turned out to be 8.3 °C. The compound further registered a max activation in the series listed under Homo sapiens of less than 30%.
